The term Ki denotes the dissociation constant of the complex between target and ligand, obtained from inhibition or displacement.

Counter-ions that a name gives are not always drawn. Like-named read-outs stand apart in the source and are kept apart here.

For one data set, the system named is rats. The data set is described as follows: acute toxicity in rats, intraperitoneal. In kind it is in vivo. To be noted: 100 mg/kg intraperitoneal. Here is the method:
(§1) 8-chloro-7-hydroxy-3-methyl-5-(5-indanyl)-2,3,4,5-tetrahydro-1H-3-benzazepine and several other compounds of formula I were atoxic when given to rats and mice in a dosis of 100 mg/kg intraperitonealt.

A further data set relates to mice. The data set is described as follows: acute toxicity in mice, intraperitoneal. In kind it is in vivo. The following applies: 100 mg/kg intraperitoneal. Here is the method:
as §1

A further data set relates to dopamine D1. The following applies: cited from earlier work.
For data set [1] the following is noted: Life Sci. 34 (1984), 1529; cited from earlier work.
In another data set the target is dopamine D1 receptor (Rattus norvegicus, UniProt P18901). Put plainly: biochemical. The following applies: read-out: Ki, dopamine stimulated adenylate cyclase.
The mark [2] stands for this setting: Life Sci. 31 (1982), 637 et seq.

Chain of dopamine D1 receptor (P18901 whole entry): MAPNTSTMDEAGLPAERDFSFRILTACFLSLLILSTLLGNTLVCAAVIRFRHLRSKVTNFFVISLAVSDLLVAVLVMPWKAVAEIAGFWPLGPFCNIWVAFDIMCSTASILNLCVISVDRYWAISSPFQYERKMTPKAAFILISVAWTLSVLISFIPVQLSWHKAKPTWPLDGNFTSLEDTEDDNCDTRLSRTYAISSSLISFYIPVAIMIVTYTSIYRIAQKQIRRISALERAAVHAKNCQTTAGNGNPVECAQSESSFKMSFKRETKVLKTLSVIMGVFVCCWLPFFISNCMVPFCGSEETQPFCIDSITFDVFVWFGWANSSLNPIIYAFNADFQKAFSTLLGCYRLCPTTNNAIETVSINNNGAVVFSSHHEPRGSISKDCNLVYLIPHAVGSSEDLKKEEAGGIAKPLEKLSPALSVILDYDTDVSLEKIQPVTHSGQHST
From the text for dopamine D1 receptor: Ki is the affinity of the tested compound for the dopamine D1 receptor as estimated from Schild analysis.

As to `Br.CN1CCc2cc(Cl)c(O)cc2C(c2ccc3c(c2)CCC3)C1` (stereo not shown) [Example No. 5a, 8-chloro-7-hydroxy-3-methyl-5-(5-indanyl)-2,3,4,5-tetrahydro-1H-3-benzazepine hydrobromide], the toxicity in rats result with rats is recorded as “atoxic”. Besides, the toxicity in mice result in the data set on mice is reported as “atoxic”.

Turning to `Oc1cc2c(cc1O)C(c1ccccc1)CNCC2` (stereo not shown) [SKF 38393, 2,3,4,5-tetrahydro-7,8-dihydroxy-1-phenyl-1H-3-benzazepine], in the data set with dopamine D1 (setting [2]), the “dopamine D1 activity” value is listed as “selective but partial dopamine D1 agonists”.

Turning to `CN1CCc2cc(Cl)c(O)cc2[C@@H](c2ccccc2)C1` [SCH 23390, R-8-chloro-7-hydroxy-2,3,4,5-tetrahydro-3-methyl-5-phenyl-1H-3-benzazepine], the “dopamine D1 activity” value in the data set on dopamine D1 (Eur.J.Pharmacol. 91 (1983), 153 et seq.) is “selective D1 dopamine antagonist”. Moreover, in data set [1], the duration of action result was “short duration of action” and the peroral adsorption result is “poor peroral adsorption”.

In the case of `CN1CCc2cc(Cl)c(O)cc2C(c2cccc3ccoc23)C1` (racemic) [Example No. 5h, 8-chloro-7-hydroxy-3-methyl-5-(7-benzofuranyl)-2,3,4,5-tetrahydro-1H-3-benzazepine], the Ki at dopamine D1 receptor was 6 nM.

Consider `CN1CCc2cc(Cl)c(O)cc2C(c2ccc3c(c2)CCCC3)C1` (racemic) [Example No. 5j, 8-chloro-7-hydroxy-5-(1,2,3,4-tetrahydronaphth-6-yl)-3-methyl-2,3,4,5-tetrahydro-1H-3-benzazepine hydrochloride], for which the inhibitory constant (Ki) on dopamine D1 receptor turned out to be 21 nM.

In the case of `CN1CCc2cc(Cl)c(O)cc2C(c2ccc(Cl)c3c2OCCC3)C1` (racemic) [Example No. 5f, 8-chloro-7-hydroxy-3-methyl-5-(5-chlorochroman-8-yl)-2,3,4,5-tetrahydro-1H-3-benzazepine], the Ki on dopamine D1 receptor stood at 10 nM.

In the case of “2,3,4,5-tetrahydro-9-chloro-7,8-dihydroxy-1-(4-hydroxyphenyl)-1H-3-benzazepine [SKF 82526]”, in the data set with dopamine D1 (setting [2]), the “dopamine D1 activity” value is “selective but partial dopamine D1 agonists”.

Values taken from patent US4751222A, “2,3,4,5-tetrahydro-1H-3-benzazepines and CNS affecting use thereof” (Novo Industri A/S, priority 1985, dated 1988).
